# Assay results from patent US20060264497A1, “Diindolylmethane-based compositions and methods of use thereof for promoting oral mucosal and bone health” (priority 2005, published 2006).
# Marks after values point to notes of the source that are not given here.
# Experiments:
# [1] = Case report: DIM treatment of a subject with rheumatoid arthritis and gingivitis; type: in vivo, human; conditions: oral, subject with rheumatoid arthritis
# Experimental: A person with a diagnosis of rheumatoid arthritis was referred for Diinolylmethane (DIM) treatment due to intolerance of oral Plaquenil®. […] They had diffuse small joint pain and elevated Rheumatoid Factor and Antinuclear Antigen serum titers. […] On probing, a total of 12 bleeding sites were documented. They began taking DIM (BioResponse-DIM 150, BioResponse, Boulder, Colo.) taking 50 mg of DIM twice daily.
# A person with a diagnosis of rheumatoid arthritis was referred for Diinolylmethane (DIM) treatment due to intolerance of oral Plaquenil®. […] They had diffuse small joint pain and elevated Rheumatoid Factor and Antinuclear Antigen serum titers. […] On probing, a total of 12 bleeding sites were documented. They began taking DIM (BioResponse-DIM 150, BioResponse, Boulder, Colo.) taking 50 mg of DIM twice daily. […] Subsequently they discontinued use of DIM and noted gradual return of painful swollen joints in their hands over 2 months.
# [2] = cited from earlier work
# [3] = test system: osteoclasts in metaphyseal bone; assay: Bone histomorphometry: osteoclast number after one year feeding of DIM or I3C; type: in vivo, rats; conditions: 1 year; for Osteoclast Cell Number in Metaphyseal Bone: DIM 20 mg/kg/day (BioResponse-DIM), I3C 50 mg/kg/day in diet
# Experimental: A one year study was conducted including evaluation of the impact of chronic feeding of DIM and I3C versus control diet in rats. The study used a dose of 20 mg/kg/day DIM, formulated for increased absorption (BioResponse-DIM, BioResponse, Boulder, Colo. [Example 1]), and 50 mg/kg/day Indole-3-Carbinol (I3C) (Sigma Chemical, St. Louis, Mo.). Bone histomorphometry was performed comparing metaphyseal bone in male and female animals using established techiques (Huffer W E, Ruegg P, Zhu J M, Lepoff R B., Semiautomated methods for cancellous bone histomorphometry using a general-purpose video image analysis system. J Microsc. 1994 January; 173 (Pt 1):53-66). Counts of osteoclast number, averaged for male and female groups are summarized in the following chart: […]
# [4] = test system: mouse osteoclast-like multinucleated cells (OCLs); assay: Pit formation assay on dentine slices; conditions: 0.5-50 micromolar, 24 h and 48 h
# Text: Osteoblasts will be obtained from the calvariae of newborn ddY mice and bone marrow cells will be obtained from the tibiae of male mice and be cocultured in aMEM (Life Technologies, Grand Island, N.Y.) containing 10% FBS, 1α,25-dihydroxyvitamin D3 (10^−8 M) (Wako Pure Chemical, Osaka, Japan) and PGE2 (10^−6 M) (Sigma) in 100-mm-diameter dishes coated with collagen gels (Nitta Gelatin, Osaka). OCLs will be formed within 6 days in culture and will be removed from the dishes by treating with 0.2% collagenase (Wako). The purity of OCLs in this fraction (crude OCL preparation) will be about 5%. To further purify the OCLs, the crude OCL preparation will be replated on culture dishes. After further culture for 8 h, osteoblasts will be removed with PBS containing 0.001% pronase E (Calbiochem, La Jolla, Calif.) and 0.02% EDTA.
# OCLs preparations (15,000 cells/0.1 ml/well) will be seeded on dentine slices (4-mm diameter) which had been placed in 96-well plates. […] Pit formation by OCls will be determined after culture for 24 h and 48 h. […] The numbers of pits on the slices will be counted. To quantitate pit-forming activity of OCLs, the areas of resorption lacunae will also be measured with an image analysis system (LA-525; PIAS Co., Tokyo). The results will be expressed as the percentage of resorbed area with respect to the whole surface area of a dentine slice.
# [5] = Dissolution of DIM containing particles (release rate profile); type: physicochemical; conditions: pH 6.8 phosphate buffer, 0.5% Tween 80, 37° C., 50 rpm
# Experimental: Testing of Dissolution of DIM Containing Particles: In order to determine the release rate profiles of DIM from matrix, particle formulations, a test using pH 6.8 phosphate buffer system containing 0.5% Tween 80 was utilized. The procedure included dissolving an amount of spray dried particles containing a known amount of DIM in a standard dissolution apparatus with standard simulated saliva solution. For the following testing, 900 ml of stock pH 6.8 buffer solution was placed into a round bottom beaker in the dissolution test apparatus. To the solution, 5 g of Tween 80 (Sorbitan Monooleate) was added and mixed while bringing to a temperature of 37° C. To this, 600 mg of a test sample with known DIM content was added to the solution and stirred at 50 rpm. At timed intervals 3.0 ml aliquots of solution was removed and filtered through 0.22 um filter. The absorption of the sample was read at 283 nm on an […], blanking vs. pH 6.8 buffer containing 0.5% Tween 80. The percent released DIM compared to the 100% complete, theoretical level was calculated.
# [6] = test system: rat bone osteoclasts; conditions: Gao and Yamaguchi 1999; cited from earlier work
smiles,measurement,setting,value
CCN(CCO)CCCC(C)Nc1ccnc2cc(Cl)ccc12 (stereo not shown) [Plaquenil],Tolerance (adverse effect),[1],unacceptable dizziness
"CC(C)Oc1ccc2c(=O)c(-c3ccccc3)coc2c1 [Ipriflavone, 3-phenyl-7-propan-2-yloxy-chromen-4-one]",Measures of bone health,"[2]; 600 mg/day, 3 years of treatment, controlled trial",no significant improvement
"c1ccc2c(Cc3c[nH]c4ccccc34)c[nH]c2c1 [DIM, 3,3′-diindolylmethane]",Osteoclast Cell Number in Metaphyseal Bone,[3]; female rats,14.3
same,Osteoclast Cell Number in Metaphyseal Bone,[3]; male rats,9.3*
same,Change in osteoclast number versus I3C treated and control animals,[3]; rats,reduction in osteoclast number
same,Pit formation by OCLs (osteoclast function and survival),[4],inhibition of pit formation
"c1ccc2c(Cc3c[nH]c4ccccc34)c[nH]c2c1 [Microcrystalline DIM, 3,3′-diindolylmethane]",Percent DIM Released from Particle,[5]; 0 minutes,0%
same,Percent DIM Released from Particle,[5]; 15 minutes,55.1%
same,Percent DIM Released from Particle,[5]; 30 minutes,73.6%
same,Percent DIM Released from Particle,[5]; 45 minutes,78.8%
same,Percent DIM Released from Particle,[5]; 60 minutes,83.5%
"OCc1c[nH]c2ccccc12 [I3C, Indole-3-carbinol, reference compound]",Osteoclast Cell Number in Metaphyseal Bone,[3]; female rats,18.3
same,Osteoclast Cell Number in Metaphyseal Bone,[3]; male rats,14.3*
"O=c1c(-c2ccc(O)cc2)coc2cc(O)cc(O)c12 [Genistein, 4′,5,7-trihydroxyisoflavone]",Potency of inhibiting the function of osteoclasts relative to daidzein,[6],about 10 times
same,Bone mineral density,"[2]; 52 mg/day, year long clinical trial",failed to show any measurable improvement
same,Serum and urinary indicators of ongoing bone loss,"[2]; 90 mg/day, clinical trial",failed to reduce
